In patent publication US20170217976A1, “6-(AMINO ACID)-MORPHINAN DERIVATIVES IN COMBINATION WITH PERMEATION […] FOR USE AS AN ORALLY, […], TRA[…] NASALLY AD[…]” (C[…], priority 2014, published 2017):
Like-named read-outs stand apart in the source and are kept apart here.

Legend:
MOR = molecular target: T1, MOR (Rattus norvegicus, UniProt P33535); assay: Opioid receptor binding, MOR, rat brain membranes
T1 construct: from tissue

DOR = molecular target: T2, DOR (Rattus norvegicus, UniProt P33533); assay: Opioid receptor binding, DOR, rat brain membranes
T2 construct: from tissue
T2 sequence (P33533 whole entry): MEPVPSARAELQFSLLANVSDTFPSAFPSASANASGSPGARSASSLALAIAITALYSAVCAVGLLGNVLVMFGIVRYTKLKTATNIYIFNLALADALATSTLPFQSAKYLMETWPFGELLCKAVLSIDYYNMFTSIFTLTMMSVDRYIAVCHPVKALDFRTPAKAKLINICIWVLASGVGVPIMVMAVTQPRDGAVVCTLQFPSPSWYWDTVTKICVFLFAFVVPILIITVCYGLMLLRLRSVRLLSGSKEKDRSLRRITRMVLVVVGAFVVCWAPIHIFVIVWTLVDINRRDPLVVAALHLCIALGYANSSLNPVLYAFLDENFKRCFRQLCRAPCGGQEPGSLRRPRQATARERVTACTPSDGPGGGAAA

[1] = molecular target: T3, human MOP expressed in CHO cells (Homo sapiens, UniProt P35372); assay: [35S]GTPγS binding, antagonism at MOR (Ke against DAMGO); type: biochemical; conditions: for Kb: Table 1-6, antagonist Ke measured against DAMGO
T3 construct: expressed in transfected cells; host or cells: CHO cells (per the unit's head)
T3 sequence (P35372 whole entry): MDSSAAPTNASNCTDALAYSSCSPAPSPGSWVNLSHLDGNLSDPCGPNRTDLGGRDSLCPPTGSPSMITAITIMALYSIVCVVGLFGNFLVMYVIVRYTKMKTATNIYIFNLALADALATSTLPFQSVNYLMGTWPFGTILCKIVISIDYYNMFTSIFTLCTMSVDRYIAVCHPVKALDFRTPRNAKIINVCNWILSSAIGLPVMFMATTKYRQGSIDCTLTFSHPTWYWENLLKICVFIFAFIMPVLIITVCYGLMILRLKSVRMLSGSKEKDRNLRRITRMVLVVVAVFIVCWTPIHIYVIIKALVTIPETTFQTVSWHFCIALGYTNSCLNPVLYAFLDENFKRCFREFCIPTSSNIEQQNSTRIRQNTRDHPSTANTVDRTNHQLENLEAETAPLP

KOR = molecular target: T4, KOR (Cavia porcellus, UniProt P41144); assay: Opioid receptor binding, KOR, guinea pig brain membranes
T4 construct: from tissue
T4 sequence (P41144 whole entry): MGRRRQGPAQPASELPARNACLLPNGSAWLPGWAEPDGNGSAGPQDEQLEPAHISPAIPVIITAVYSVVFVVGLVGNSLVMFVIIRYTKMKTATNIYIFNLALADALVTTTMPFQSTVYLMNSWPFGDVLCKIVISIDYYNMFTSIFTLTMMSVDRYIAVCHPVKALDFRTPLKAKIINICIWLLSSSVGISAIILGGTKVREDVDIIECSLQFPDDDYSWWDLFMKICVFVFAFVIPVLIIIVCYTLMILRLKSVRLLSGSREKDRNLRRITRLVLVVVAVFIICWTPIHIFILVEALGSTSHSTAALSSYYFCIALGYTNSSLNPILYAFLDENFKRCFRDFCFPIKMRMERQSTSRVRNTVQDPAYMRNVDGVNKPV

[2] = test system: mouse vas deferens preparation; assay: Mouse vas deferens bioassay; conditions: for IC50: read-out: IC50, agonist potency in mouse vas deferens
Protocol: The mouse vas deferens bioassay was performed as described in: M. Spetea et al., Eur. J. Pharmacol. 2004, 483, 301-308

[3] = Permeation study through rat small intestine in Ussing type diffusion chambers; type: in vitro ADME; conditions: apical to basolateral, pH 7.5, no permeation enhancer, three hours incubation
Protocol: Ussing type diffusion chambers with a surface area of 0.64 cm^2 were utilized. Rat small intestine was excised immediately after sacrificing the animal and mounted in the chamber. The donor and acceptor compartments of the chamber were filled with 1.0 ml of the freshly prepared incubation medium containing either 40 mM HEPES buffer (HEPES=2-(4-(2-hydroxyethyl)-1-piperazinyl)-ethane sulfonic acid) adjusted to pH 7.5 or 6.5 or 50 mM sodium acetate buffer adjusted to pH 5.5. […] The samples were centrifuged at 7,200 g for 5 minutes and the supernatant was analyzed via HPLC. Cumulative corrections were performed for the previously removed samples to determine the total amount permeated.

human MOR = molecular target: T5, human MOR (Homo sapiens, UniProt P35372); assay: biochemical; type: biochemical
T5 construct: expressed in transfected cells; host or cells: CHO cells
T5 sequence (P35372 whole entry): as the sequence (P35372 whole entry) above
Protocol: A number of compounds were evaluated for agonist potency and efficacy at the MOR using the [^35S]GTPγS functional assay in CHO cells expressing human MOR receptors.

rats = assay: Tail-flick test in rats after oral administration; type: in vivo, rat; conditions: for ED50: Rattus norvegicus, po
Protocol: The rat tail-flick test was performed as described in: S. Furst et. al. J. Pharmacol. Exp. Ther. 2005, 312, 609-618

[4] = pH-metric determination of pKa, logP and logD in octanol/water (PCA200/Cheqsol); type: physicochemical
Protocol: All titrations were performed in 0.15M KCl solution under argon gas. The pKa was determined by the shape of the titration curve and partition coefficients were determined by the shift in titration curve of pKa in the presence of octanol. The analysis of pH-metric data was performed by RefinementPro software (version 2.0, Sirius, Sussex, UK).

[5] = Riba P. et al. 2010, cited from earlier work
[6] = cited from earlier work
[7] = Binding Ki MOR, Table 1-6, rat brain membranes
[8] = Binding Ki MOR, Table 2-6, rat brain membranes
[9] = Binding Ki DOR, Table 1-6, rat brain membranes
[10] = Binding Ki DOR, Table 2-6, rat brain membranes
[11] = Binding Ki KOR, Table 1-6, guinea pig brain membranes
[12] = Binding Ki KOR, Table 2-6, guinea pig brain membranes
[13] = read-out: [35S]GTPγS binding, MOR Ke
[14] = 0.5 h, read-out: ED50 (p.o., mg/kg) 30 min, 30 min
[15] = read-out: ED50 (p.o., mg/kg) 1 h, 1 h
[16] = read-out: ED50 (p.o., mg/kg) 2 h, 2 h
[17] = read-out: ED50 (p.o., mg/kg) 3 h, 3 h

T1 sequence (P33535 whole entry): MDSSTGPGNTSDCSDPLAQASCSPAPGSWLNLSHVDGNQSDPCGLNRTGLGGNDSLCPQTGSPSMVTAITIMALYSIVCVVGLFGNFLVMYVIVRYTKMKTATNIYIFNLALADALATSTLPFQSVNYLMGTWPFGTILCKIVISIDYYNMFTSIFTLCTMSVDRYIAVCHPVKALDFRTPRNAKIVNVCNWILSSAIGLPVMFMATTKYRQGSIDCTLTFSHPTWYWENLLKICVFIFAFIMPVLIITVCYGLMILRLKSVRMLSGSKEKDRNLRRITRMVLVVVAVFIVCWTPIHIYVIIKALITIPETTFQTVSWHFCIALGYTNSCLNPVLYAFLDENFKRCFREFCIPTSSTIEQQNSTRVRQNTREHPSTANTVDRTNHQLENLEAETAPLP

SMILES	Ki (MOR; [7]) [nM]	Ki (MOR; [8]) [nM]	Ki (DOR; [9]) [nM]	Ki (DOR; [10]) [nM]	EC50 [1] [nM]	Kb ([1]; [35S]GTPγS binding, MOR Ke) [nM]	Ki (KOR; [11]) [nM]	Ki (KOR; [12]) [nM]	other results
CO[C@@]12CC[C@H](NCC(=O)O)[C@@H]3Oc4c(O)ccc5c4[C@@]31CCN(CC1CC1)[C@@H]2C5 [Compound 61]	0.68	0.68	5.15	5.15	> 10000	0.63	4.65	4.65	–
CO[C@@]12CC[C@@H](NCC(=O)O)[C@@H]3Oc4c(O)ccc5c4[C@@]31CCN(CC1CC1)[C@@H]2C5 [Compound 62]	1.31	1.31	4.76	4.76	> 10000	0.19	9.31	9.31	–
CO[C@@]12CC[C@H](NCCC(=O)O)[C@@H]3Oc4c(O)ccc5c4[C@@]31CCN(CC1CC1)[C@@H]2C5 [Compound 63]	1.35	1.35	6.25	6.25	> 10000	0.27	7.81	7.81	–
CO[C@@]12CC[C@@H](NCCC(=O)O)[C@@H]3Oc4c(O)ccc5c4[C@@]31CCN(CC1CC1)[C@@H]2C5 [Compound 64]	1.51	1.51	8.12	8.12	> 10000	0.96	11.7	11.7	–
CO[C@@]12CC[C@H](NCCCC(=O)O)[C@@H]3Oc4c(O)ccc5c4[C@@]31CCN(CC1CC1)[C@@H]2C5 [Compound 65]	1.21	1.21	10.7	10.7	> 10000	–	5.31	5.31	Kb [1, 13]: 0.94 nM
CO[C@@]12CC[C@@H](NCCCC(=O)O)[C@@H]3Oc4c(O)ccc5c4[C@@]31CCN(CC1CC1)[C@@H]2C5 [Compound 66]	3.36	3.36	10.2	10.2	> 10000	–	16.8	16.8	Kb [1, 13]: 1.06 nM
C[C@@H](NC(=O)[C@@H](N)Cc1ccc(O)cc1)C(=O)NCC(=O)N(C)[C@@H](Cc1ccccc1)C(=O)NCCO [DAMGO, reference compound]	–	–	–	–	–	–	–	–	IC50 [2]: 76.6 nM
CCO.CO[C@@]12CC[C@@H](NCC(=O)O)[C@@H]3Oc4c(O)ccc5c4[C@@]31CCN(C)[C@@H]2C5.Cl.Cl.O [HS731, 2-[(4,5α-EPOXY-3-HYDROXY-14β-METHOXY-17-METHYLMORPHINAN-6β-YL)AMINO]ACETIC ACID DIHYDROCHLORIDE HYDRATE ETHANOLATE]	–	–	–	–	–	–	–	–	permeation through rat intestinal mucosa [3]: 11%; IC50 ([2]; Mus musculus): 7 nM; EC50 (human MOR): 3.88 nM; Emax (human MOR; read-out: [35S]GTPγS binding, MOR % stim.): 107%; ED50 (rats; [14]): 21 mg/kg; ED50 (rats; [15]): 5.52 mg/kg; ED50 (rats; [16]): 6.78 mg/kg; ED50 (rats; [17]): 6.33 mg/kg; pKa ([4]; […] KCl solution (aqueous titration), 25° C., 0.15M KCl): 2.4; logP ([4]; octanol/water, 25° C.): -0.78; logD ([4]; octanol/water, pH 7.4, 25° C.): -2.06
CCOC(=O)CN[C@@H]1CC[C@@]2(OC)[C@H]3Cc4ccc(O)c5c4[C@@]2(CCN3C)[C@H]1O5 [HS731-Et ester]	–	–	–	–	–	–	–	–	Ki (MOR; Binding Ki (nM) MOR, in vitro binding assay, rat brain membranes): 0.74 nM; Ki (DOR; Binding Ki (nM) DOR, in vitro binding assay, rat brain membranes): 0.81 nM; IC50 ([2]; Mus musculus): 23.8 nM; times less potent than HS731 in mouse vas deferens bioassay ([2]; relative to HS731): about 3.5; ED50 (rats; [14]): > 2.5 mg/kg; ED50 (rats; [15]): 2.34 mg/kg; ED50 (rats; [16]): 0.85 mg/kg; ED50 (rats; [17]): 0.71 mg/kg; ED50 (rats; read-out: ED50 (p.o., mg/kg) 4 h, 4 h): 0.82 mg/kg; antinociceptive potency, fold higher than HS731 after 1 h (rats; p.o., 1 h, relative to HS731): ca. 2 fold; antinociceptive potency, fold higher than HS731 after 2 h (rats; p.o., 2 h, relative to HS731): ca. 8 fold; antinociceptive potency, fold higher than HS731 after 3 h (rats; p.o., 3 h, relative to HS731): ca. 9 fold; Ki (KOR; Binding Ki (nM) KOR, in vitro binding assay, guinea pig brain membranes): 21.9 nM
CN1CC[C@]23c4c5ccc(O)c4O[C@H]2C(=O)CC[C@@]3(O)[C@H]1C5 [OMO, oxymorphone]	–	–	–	–	–	–	–	–	logD (pH = 7.4) ([5]; pH 7.4, published data): −0.32; logP ([5]; published data): 0.67; pKa ([5]; published data): 8.33
C[C@H]1CN(C[C@H](Cc2ccccc2)C(=O)NCC(=O)O)CC[C@@]1(C)c1cccc(O)c1 [alvimopan]	–	–	–	–	–	–	–	–	oral bioavailability [6]: approx. 6%
